The source of these data is PMC7438908, “Antimicrobial Peptide Reverses ABCB1-Mediated Chemotherapeutic Drug Resistance” (Frontiers in Pharmacology, 2020).

Data set [1] deals with KB-3-1 cells. In words: MTT reversal assay, parental KB-3-1. In kind it is cell-based, human. The conditions noted are these: no modulator, mean ± SD of at least three independent experiments in triplicate, read-out: IC50 of anticancer drug alone. How it is done:
(§1) Therefore, we used KB-C2 and its parental cell line KB-3-1 in this study. […] All the cell lines were cultured in DMEM containing 1% penicillin/streptomycin and 10% FBS at 37°C with 5% CO2. All drug-resistant cell lines were cultured in drug-free medium for more than 2 weeks prior to their use.
(§2) Briefly, 5×10^3 cells per well were evenly seeded in 96-well microplates overnight. For the cytotoxicity assay, peptides and positive control of known substrate anticancer drugs were added in a designated concentration gradient. For the reversal assay, peptides and positive control agents were added 2 h before the addition of anticancer drugs within the specified concentration gradient. The plates were incubated in a culture condition for 68 h followed by the addition of 20 μL MTT solution (4 mg/mL) and further incubation of 4 h. After aspirating the culture medium and MTT solution, the formazan crystals were dissolved with 100 μL DMSO. The absorbance was determined at 570 nm with the accuSkan GO UV/Vis Microplate Spectrophotometer (Fisher Sci., Fair Lawn, NJ).
(Tetrazolium dyes change colour on reduction, which living cells bring about.)

The test system of data set [2] is HEK293/pcDNA3.1 cells. The data set can be described thus: MTT reversal assay, HEK293/pcDNA3.1. The class given is cell-based. The conditions noted are these: no modulator, mean ± SD of at least three independent experiments in triplicate, read-out: IC50 of anticancer drug alone. How it is done:
as §1, §2

In data set [3] the test system is HEK293/ABCB1 cells. In words: MTT reversal assay, transfected HEK293/ABCB1. The conditions noted are these: HEK293/ABCB1, read-out: IC50 of anticancer drug alone. In kind it is cell-based.
The test system of data set [4] is KB-C2 cells (ABCB1-overexpressing). The data set can be described thus: MTT reversal assay, drug-selected ABCB1-overexpressing KB-C2. In kind it is cell-based, human. How it is done:
as §1, §2

The subject of data set [5] is ABCB1 in KB-C2 cells. In words: [3H]-paclitaxel accumulation, KB-C2. In kind it is cell-based, human. Particulars: KB-C2 vs KB-3-1; after 2 hours of incubation; no inhibitor. How it is done: (§3) Drug accumulation and efflux assays were performed as previously described ([Fan et al., 2018]). For the drug accumulation assay, KB-C2 and KB-3-1 cells were seeded at 1×10^4 cells per well into 24-well plates and incubated at 37°C overnight. After cells were incubated in the presence or absence of peptide HX-12C and positive reversal agent for 72 h, the medium was replaced by medium containing 5 μM [^3H]-paclitaxel with peptide HX-12C or positive reversal agent. The drug medium was discarded after 2 h incubation, then cells were washed three times with ice-cold PBS and transferred to the scintillation fluid. The drug efflux assay was performed after discarding the drug medium, then cells were washed three times with ice-cold PBS and treated with the medium containing peptide HX-12C or positive reversal agent. There were three different time points (30, 60, and 120 min) at which after changing the medium, the cells were washed three times with ice-cold PBS and collected and transferred to the scintillation fluid. The Packard TRI-CARB1 190`A liquid scintillation analyzer was used to measure radioactivity. A parallel well of cells for each group was set up for cell number counting at the end of assay for the purpose of data normalization.

Data set [6] concerns ABCB1 in KB-C2 cells. In words: [3H]-paclitaxel efflux, KB-C2. In kind it is cell-based, human. Particulars: without inhibitor treatment, 2 h. How it is done:
as §3

The test system of data set [7] is KB-3-1 cells. The data set can be described thus: MTT cytotoxicity of peptides, parental KB-3-1. Particulars: KB-3-1 parental; modified MTT, 68 h + 4 h MTT, 570 nm; three independent experiments. The class given is cell-based, human. How it is done: as §1, §2
Data set [8] has as its target T1, ABCB1 (Homo sapiens, UniProt P08183).
T1 construct: purchased BD Biosciences, San Jose, CA, USA; host or cells: High Five insect cells (membrane vesicles)
In words: ABCB1 ATPase assay (vanadate-sensitive). The class given is biochemical. Particulars: insect cell membrane vesicles. How it is done:
The ABCB1 ATPase activity was measured based on vanadate-sensitive principle as previously described ([Zhang et al., 2016]). The High Five insect cells membrane vesicles (BD Biosciences, San Jose, CA, USA) were first incubated for 5 min in ATPase assay buffer at 37°C with or without 0.3 mM vanadate. Then peptide HX-12C at a concentration of 0 to 40 μM was adding to the assay buffer and incubated at 37°C for 3 min. After adding 5 mM Mg-ATP with a total volume of 0.1 mL, the ATPase reaction was initiated until stopped by adding 100 μL 5% SDS solution after incubation at 37°C for 20 min. The amount of inorganic phosphate (IP) was used to calculate the ATPase activity of ABCB1, detected at 800 nm using a spectrophotometer.

“Also recorded” adds a separate entry of the source. Like-named read-outs stand apart in the source and are kept apart here. Where no end group is shown, it is not given here.

T1 sequence (P08183 whole entry): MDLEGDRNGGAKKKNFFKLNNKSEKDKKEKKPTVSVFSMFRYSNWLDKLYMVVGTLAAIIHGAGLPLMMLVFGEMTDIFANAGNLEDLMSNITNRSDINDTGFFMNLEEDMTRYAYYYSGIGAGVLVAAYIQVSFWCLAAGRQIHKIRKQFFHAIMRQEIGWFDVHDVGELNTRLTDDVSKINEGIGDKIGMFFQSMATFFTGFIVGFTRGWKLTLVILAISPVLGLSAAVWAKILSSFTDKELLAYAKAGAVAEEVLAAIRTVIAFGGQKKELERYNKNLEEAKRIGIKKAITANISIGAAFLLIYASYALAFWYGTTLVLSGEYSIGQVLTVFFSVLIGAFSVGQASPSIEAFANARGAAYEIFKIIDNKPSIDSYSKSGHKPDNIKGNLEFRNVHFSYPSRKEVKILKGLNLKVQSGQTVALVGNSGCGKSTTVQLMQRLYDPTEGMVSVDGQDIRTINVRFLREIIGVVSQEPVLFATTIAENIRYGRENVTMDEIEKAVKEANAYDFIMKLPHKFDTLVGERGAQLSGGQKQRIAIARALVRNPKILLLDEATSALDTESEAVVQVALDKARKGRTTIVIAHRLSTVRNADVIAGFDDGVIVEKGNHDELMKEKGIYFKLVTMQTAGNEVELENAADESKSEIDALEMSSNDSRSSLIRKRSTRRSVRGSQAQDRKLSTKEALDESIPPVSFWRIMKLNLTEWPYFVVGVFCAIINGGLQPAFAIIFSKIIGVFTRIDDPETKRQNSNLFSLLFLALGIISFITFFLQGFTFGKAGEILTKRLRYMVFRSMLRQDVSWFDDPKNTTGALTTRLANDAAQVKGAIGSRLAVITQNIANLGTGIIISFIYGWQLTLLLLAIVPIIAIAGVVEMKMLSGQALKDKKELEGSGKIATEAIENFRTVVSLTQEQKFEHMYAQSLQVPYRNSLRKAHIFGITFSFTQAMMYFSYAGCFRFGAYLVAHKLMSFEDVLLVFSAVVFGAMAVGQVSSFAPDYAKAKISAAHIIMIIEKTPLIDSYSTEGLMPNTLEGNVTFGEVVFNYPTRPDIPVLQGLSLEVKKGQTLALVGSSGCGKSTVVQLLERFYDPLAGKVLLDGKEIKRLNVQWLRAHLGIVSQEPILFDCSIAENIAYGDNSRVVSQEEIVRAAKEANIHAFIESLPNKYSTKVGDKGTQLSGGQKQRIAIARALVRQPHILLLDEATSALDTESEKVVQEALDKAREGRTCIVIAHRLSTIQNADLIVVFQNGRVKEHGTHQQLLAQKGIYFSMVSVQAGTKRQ

In the case of `N.N.[Cl][Pt][Cl]` [Cisplatin, cisplatin], the IC50 – broadly, the concentration that inhibits the measured activity by half – in data set [1] amounted to 1.79 ± 0.476 µM; in data set [2], 2.21 ± 0.541 µM.
As to `CC(=O)O[C@H]1C(=O)[C@@]2(C)[C@H]([C@H](OC(=O)c3ccccc3)[C@]3(O)C[C@H](OC(=O)[C@H](O)[C@@H](NC(=O)c4ccccc4)c4ccccc4)C(C)=C1C3(C)C)[C@]1(OC(C)=O)CO[C@@H]1C[C@@H]2O` [Paclitaxel, paclitaxel], the values for the IC50 in data set [1] (Homo sapiens), in data set [2] (Homo sapiens) and in data set [3] were 0.002 ± 0.0007 µM, 1.45 ± 0.121 µM and 30.9 ± 4.67 µM, respectively.
Consider `COc1cccc2c1C(=O)c1c(O)c3c(c(O)c1C2=O)C[C@@](O)(C(=O)CO)C[C@@H]3O[C@H]1C[C@H](N)[C@H](O)[C@H](C)O1` [Doxorubicin, doxorubicin], for which the half-maximal inhibitory concentration (IC50) in data set [1] (Homo sapiens) was found to be 1.19 ± 0.279 µM; in data set [4] (Homo sapiens, KB-C2, read-out: IC50 of anticancer drug alone), 69.8 ± 4.64 µM; in data set [3], 31.2 ± 5.41 µM. For the same compound, the “IC50 in ABCB1-overexpressing cells compared with parental cells” value in data set [4] is recorded as “significantly higher than those of their parental cells”.
Consider `CC(=O)O[C@H]1C(=O)[C@@]2(C)[C@H]([C@H](OC(=O)c3ccccc3)[C@]3(O)C[C@H](OC(=O)[C@H](O)[C@@H](NC(=O)c4ccccc4)c4ccccc4)C(C)=C1C3(C)C)[C@]1(OC(C)=O)CO[C@@H]1C[C@@H]2O` [[^3H]-paclitaxel], for which the “level of [3H]-paclitaxel in KB-C2 lower than in KB-3-1” value in data set [5] was “approximately 100 fold”. In data set [6], the “decrease of intracellular [3H]-paclitaxel (efflux)” value is recorded as “about 50%”.
In the case of FFRKVLKLIRKIWR [HX-12C], in data set [7], the IC50 worked out at 7.53 µM. In addition, in data set [8] (0 to 40 μM), the “effect on ATPase activity of ABCB1” value is listed as “stimulated ABCB1 ATPase activity; also recorded: can stimulate the ATPase activity of ABCB1 in a concentration-dependent manner”. For the same compound, the “maximal stimulation of ABCB1 ATPase activity” value in data set [8] (peptide 0 to 40 μM, 37°C, 20 min, vanadate-sensitive, three independent experiments) is on record as 4.7 fold of the basic activity.
